Laboratory results taken from patent US8022102B2, “Unsaturated tetracyclic tetrahydrofuran derivatives” (Janssen Pharmaceutica, NV, priority 2004, dated 2011).
Where two headings read alike, the source gives them in different places.

What was measured:
[1] = target: T1, human Dopamine D2L receptor (Homo sapiens, UniProt P14416); assay: In vitro binding affinity for human D2L receptor ([3H]Spiperone); conditions: human D2L receptor-transfected CHO cell membranes, [3H]Spiperone; read-out: h-D2L (converted)
T1 construct: expressed in transfected cells; host or cells: CHO cells
Method: Frozen membranes of human Dopamine D2L receptor-transfected CHO cells were thawed, briefly homogenised using an Ultra-Turrax T25 homogeniser and diluted in Tris-HCl assay buffer containing NaCl, CaCl2, MgCl2, KCl (50, 120, 2, 1, and 5 mM respectively, adjusted to pH 7.7 with HCl) to an appropriate protein concentration optimised for specific and non-specific binding. Radioligand [^3H]Spiperone (NEN, specific activity ˜70 Ci/mmol) was diluted in assay buffer at a concentration of 2 nmol/L. Prepared radioligand (50 μl), along with 50 μl of either the 10% DMSO control, Butaclamol (10^−6 mol/l final concentration), or compound of interest, was then incubated (30 min, 37° C.) with 400 μl of the prepared membrane solution. Membrane-bound activity was filtered through a Packard Filtermate harvester onto GF/B Unifilterplates and washed with ice-cold Tris-HCl buffer (50 mM; pH 7.7; 6×0.5 ml). Filters were allowed to dry before adding scintillation fluid and counting in a Topcount scintillation counter. Percentage specific bound and competition binding curves were calculated using S-Plus software (Insightful).

[2] = target: T2, human cloned 5-HT2A receptor (Homo sapiens, UniProt P28223); assay: In vitro binding affinity for 5-HT2A receptor (radioligand binding); conditions: human cloned 5-HT2A receptor, radioligand binding
T2 construct: expressed in transfected cells; host or cells: L929 cells
Method: During the incubation, the radioligands bind to the receptor. When equilibrium of binding is reached, the receptor bound radioactivity is separated from the non-bound radioactivity, and the receptor bound activity is counted. The interaction of the test compounds with the receptors is assessed in competition binding experiments. Various concentrations of the test compound are added to the incubation mixture containing the tissue preparation and the radioligand. Binding of the radioligand will be inhibited by the test compound in proportion to its binding affinity and its concentration. The affinities of the compounds for the 5-HT2 receptors were measured by means of radioligand binding studies conducted with: (a) human cloned 5-HT2A receptor, expressed in L929 cells using [^125I]R91150 as radioligand and (b) human cloned 5-HT2C receptor, expressed in CHO cells using [^3H]mesulergine as radioligand.

[3] = target: T3, human cloned 5-HT2C receptor (Homo sapiens, UniProt P28335); assay: In vitro binding affinity for 5-HT2C receptor (radioligand binding); conditions: human cloned 5-HT2C receptor, radioligand binding
T3 construct: expressed in transfected cells; host or cells: CHO cells
T3 sequence (P28335 33-458): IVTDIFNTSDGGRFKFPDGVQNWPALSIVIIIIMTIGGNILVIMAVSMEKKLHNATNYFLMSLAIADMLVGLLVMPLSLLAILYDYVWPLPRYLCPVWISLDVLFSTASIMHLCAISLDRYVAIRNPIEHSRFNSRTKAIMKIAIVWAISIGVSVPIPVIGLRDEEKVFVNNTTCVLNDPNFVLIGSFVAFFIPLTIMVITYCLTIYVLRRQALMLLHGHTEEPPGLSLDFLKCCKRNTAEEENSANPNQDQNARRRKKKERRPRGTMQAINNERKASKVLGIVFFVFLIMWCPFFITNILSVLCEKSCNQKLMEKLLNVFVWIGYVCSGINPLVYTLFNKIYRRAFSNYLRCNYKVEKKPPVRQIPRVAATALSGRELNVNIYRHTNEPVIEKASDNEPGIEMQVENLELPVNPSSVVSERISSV
Method: During the incubation, the radioligands bind to the receptor. When equilibrium of binding is reached, the receptor bound radioactivity is separated from the non-bound radioactivity, and the receptor bound activity is counted. The interaction of the test compounds with the receptors is assessed in competition binding experiments. Various concentrations of the test compound are added to the incubation mixture containing the tissue preparation and the radioligand. Binding of the radioligand will be inhibited by the test compound in proportion to its binding affinity and its concentration.

T1 sequence (P14416 whole entry): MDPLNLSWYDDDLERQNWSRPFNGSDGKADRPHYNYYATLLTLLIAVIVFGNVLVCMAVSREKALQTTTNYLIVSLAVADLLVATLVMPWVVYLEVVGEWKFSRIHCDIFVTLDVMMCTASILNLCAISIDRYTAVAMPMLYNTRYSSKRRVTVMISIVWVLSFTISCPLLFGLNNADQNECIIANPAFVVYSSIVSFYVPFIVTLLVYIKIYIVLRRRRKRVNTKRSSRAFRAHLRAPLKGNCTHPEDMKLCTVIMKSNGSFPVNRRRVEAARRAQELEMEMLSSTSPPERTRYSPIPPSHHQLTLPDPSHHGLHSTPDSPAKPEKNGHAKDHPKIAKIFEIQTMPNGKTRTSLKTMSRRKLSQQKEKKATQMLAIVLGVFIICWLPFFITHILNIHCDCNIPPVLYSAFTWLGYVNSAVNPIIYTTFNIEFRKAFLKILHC
T2 sequence (P28223 whole entry): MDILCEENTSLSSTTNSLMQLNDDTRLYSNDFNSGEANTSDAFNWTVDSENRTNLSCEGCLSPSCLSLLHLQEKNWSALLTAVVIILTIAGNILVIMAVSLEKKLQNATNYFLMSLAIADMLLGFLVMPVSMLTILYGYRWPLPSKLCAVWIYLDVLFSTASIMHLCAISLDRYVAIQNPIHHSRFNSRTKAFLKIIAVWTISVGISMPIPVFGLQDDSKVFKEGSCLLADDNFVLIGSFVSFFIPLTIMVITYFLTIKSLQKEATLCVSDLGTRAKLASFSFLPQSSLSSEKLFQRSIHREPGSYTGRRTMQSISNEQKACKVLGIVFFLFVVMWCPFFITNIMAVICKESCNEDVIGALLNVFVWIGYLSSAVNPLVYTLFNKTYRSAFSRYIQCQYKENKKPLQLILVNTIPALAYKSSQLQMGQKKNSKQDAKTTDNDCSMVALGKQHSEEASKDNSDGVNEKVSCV

Row | SMILES | IC50 [1] [nM] | IC50 ([2]; read-out: h-5HT2A (converted)) [nM] | IC50 ([3]; read-out: h-5HT2C (converted)) [nM] | IC50 ([3]; h-5HT2C) [nM] | IC50 ([2]; h-5HT2A) [nM]
1 | CN(C[C@H]1CC2=C(O1)c1cc(F)ccc1Cc1ccccc12)C1CC(=O)NC1=O (mixture of isomers) [Compound 124] | > 10000 | 39.8 |  |  | 
2 | CNCC1CC2=C(O1)c1cc(F)ccc1Sc1ccccc12 (single isomer, unassigned) [Compound 13] | 200 | 3.16 | 3.98 |  | 
3 | CNCC1CC2=C(O1)c1cc(F)ccc1Sc1ccccc12 (single isomer, unassigned) [Compound 14] |  |  | 0.2 |  | 
4 | CN(C)CC1CC2=C(O1)c1ccccc1Cc1ccccc12 (single isomer, unassigned) [Compound 23] | 1580 |  | 15.8 |  | 
5 | CN(C)CC1CC2=C(O1)c1ccccc1Cc1ccccc12 (single isomer, unassigned) [Compound 24] | 158 |  | 1.26 |  | 
6 | NCC1CC2=C(O1)c1cc(F)ccc1Cc1ccccc12 (stereo not shown) [Compound 1] |  | 1.58 | 0.794 |  | 
7 | CNCC1CC2=C(O1)c1cc(Br)ccc1Cc1ccccc12 (stereo not shown) [Compound 5] | 31.6 | 0.794 | 0.794 |  | 
8 | CCCCc1ccc2c(c1)C1=C(CC(CNC)O1)c1ccccc1C2 (stereo not shown) [Compound 6] | 251 | 31.6 |  |  | 
9 | CNCC1CC2=C(O1)c1cc(F)ccc1C(C)c1ccccc12 (stereo not shown) [Compound 8] | 2000 | 31.6 | 10 |  | 
10 | CCNCC1CC2=C(O1)c1cc(F)ccc1Sc1ccccc12 (stereo not shown) [Compound 18] | 15.8 | 0.398 | 1.26 |  | 
11 | OCCNCC1CC2=C(O1)c1cc(F)ccc1Cc1ccccc12 (stereo not shown) [Compound 19] | 63.1 | 1.58 | 1 |  | 
12 | CN(C)CC1CC2=C(O1)c1ccccc1Cc1ccccc12 (stereo not shown) [Compound 22] |  | 3.98 | 3.98 |  | 
13 | CN(C)CC1CC2=C(O1)c1ccccc1Oc1ccccc12 (stereo not shown) [Compound 25] | 1260 | 63.1 | 20 |  | 
14 | CN(C)CC1CC2=C(O1)c1cc(F)ccc1Oc1ccccc12 (stereo not shown) [Compound 26] |  | 10 | 7.94 |  | 
15 | CN(C)CC1CC2=C(O1)c1cc(Br)ccc1Oc1ccccc12 (stereo not shown) [Compound 27] |  | 7.94 | 2.51 |  | 
16 | CN(C)CC1CC2=C(O1)c1cc(F)ccc1Sc1ccccc12 (stereo not shown) [Compound 28] | 12.6 | 0.398 |  |  | 
17 | CN(CCO)CC1CC2=C(O1)c1cc(F)ccc1Cc1ccccc12 (stereo not shown) [Compound 31] |  | 2.51 | 1.58 |  | 
18 | CN(CCO)CC1CC2=C(O1)c1cc(F)ccc1Oc1ccccc12 (stereo not shown) [Compound 32] |  | 15.8 | 25.1 |  | 
19 | OC1CCN(CC2CC3=C(O2)c2cc(F)ccc2Cc2ccccc23)C1 (stereo not shown) [Compound 33] | 39.8 | 0.794 | 0.794 |  | 
20 | OC1CCN(CC2CC3=C(O2)c2cc(F)ccc2Sc2ccccc23)C1 (stereo not shown) [Compound 34] | 10 | 0.126 |  |  | 

Row | SMILES | IC50 [1] [nM] | IC50 ([2]; read-out: h-5HT2A (converted)) [nM] | IC50 ([3]; read-out: h-5HT2C (converted)) [nM] | IC50 ([3]; h-5HT2C) [nM] | IC50 ([2]; h-5HT2A) [nM]
21 | OC1CCCN(CC2CC3=C(O2)c2cc(F)ccc2Cc2ccccc23)C1 (stereo not shown) [Compound 37] | 20 | 1 | 2 |  | 
22 | OCCC1CCN(CC2CC3=C(O2)c2cc(F)ccc2Cc2ccccc23)CC1 (stereo not shown) [Compound 38] | 2 | 0.316 | 1.26 |  | 
23 | COc1cc2c(cc1OC)CN(CC1CC3=C(O1)c1cc(F)ccc1Cc1ccccc13)CC2 (stereo not shown) [Compound 40] | 50.1 | 6.31 | 2.51 |  | 
24 | OCCN1CCN(CC2CC3=C(O2)c2cc(F)ccc2Cc2ccccc23)CC1 (stereo not shown) [Compound 41] | 10 | 5.01 | 12.6 |  | 
25 | OCCN1CCN(CC2CC3=C(O2)c2cc(F)ccc2Sc2ccccc23)CC1 (stereo not shown) [Compound 42] | 5.01 | 3.16 | 10 |  | 
26 | CS(=O)(=O)N1CCN(CC2CC3=C(O2)c2cc(F)ccc2Oc2ccccc23)CC1 (stereo not shown) [Compound 45] | 794 | 79.4 | 100 |  | 
27 | O=S(=O)(Cc1ccccc1)N1CCN(CC2CC3=C(O2)c2cc(F)ccc2Cc2ccccc23)CC1 (stereo not shown) [Compound 51] | 100 | 79.4 | 200 |  | 
28 | O=S(=O)(Cc1ccccc1)N1CCN(CC2CC3=C(O2)c2cc(F)ccc2Oc2ccccc23)CC1 (stereo not shown) [Compound 52] | 158 | 100 | 200 |  | 
29 | CC(=O)N1CCN(CC2CC3=C(O2)c2cc(F)ccc2Cc2ccccc23)CC1 (stereo not shown) [Compound 53] | 200 | 3.98 | 7.94 |  | 
30 | CC(=O)N1CCN(CC2CC3=C(O2)c2cc(F)ccc2Oc2ccccc23)CC1 (stereo not shown) [Compound 54] |  | 31.6 | 100 |  | 
31 | CCCC(=O)N1CCN(CC2CC3=C(O2)c2cc(F)ccc2Cc2ccccc23)CC1 (stereo not shown) [Compound 55] | 316 | 3.98 | 10 |  | 
32 | CCCC(=O)N1CCN(CC2CC3=C(O2)c2cc(F)ccc2Oc2ccccc23)CC1 (stereo not shown) [Compound 56] | 1260 | 100 | 100 |  | 
33 | O=C(C1CC1)N1CCN(CC2CC3=C(O2)c2cc(F)ccc2Cc2ccccc23)CC1 (stereo not shown) [Compound 57] | 316 | 3.98 | 20 |  | 
34 | COC(=O)CC(=O)N1CCN(CC2CC3=C(O2)c2cc(F)ccc2Cc2ccccc23)CC1 (stereo not shown) [Compound 59] | 316 | 2 | 5.01 |  | 
35 | CCCCNC(=O)N1CCN(CC2CC3=C(O2)c2cc(F)ccc2Cc2ccccc23)CC1 (stereo not shown) [Compound 77] | 126 | 3.98 |  |  | 
36 | CCCCNC(=O)N1CCN(CC2CC3=C(O2)c2cc(F)ccc2Oc2ccccc23)CC1 (stereo not shown) [Compound 78] |  | 79.4 | 50.1 |  | 
37 | O=C(NC1CCCCC1)N1CCN(CC2CC3=C(O2)c2cc(F)ccc2Cc2ccccc23)CC1 (stereo not shown) [Compound 79] | 1580 | 39.8 |  |  | 
38 | O=C(Nc1ccc(F)cc1)N1CCN(CC2CC3=C(O2)c2cc(F)ccc2Cc2ccccc23)CC1 (stereo not shown) [Compound 85] | 100 | 3.16 |  |  | 
39 | CN(C[C@H]1CC2=C(O1)c1cc(F)ccc1Cc1ccccc12)C(=O)Oc1ccccc1 [Compound 111] |  |  |  | 3.98 | 200
